In ChEMBL document CHEMBL5226375, “Synthesis and Comprehensive in Vivo Activity Profiling of Olean-12-en-28-ol, 3β-Pentacosanoate in Experimental Autoimmune Encephalomyelitis: A Natural Remyelinating and Anti-Inflammatory Agent” (J Nat Prod, 2023):
Each block holds one compound with its values, some of them ahead of it. Calls of active or inactive are those of the source. No cut-off for these calls is given here.

How the values were obtained:
Mus musculus [1] = test: Anti-inflammatory activity against MOG35-55-induced experimental autoimmune encephalomyelitis C57BL/6 mouse model assessed as fold change in MBP gene expression in brain at 0.15 mg/kg/day, ig for 14 days starting from 12th day of immunization by RT-qPCR analysis relative to control; assay type: functional; settings: time 14 day
Mus musculus [2] = test: Anti-inflammatory activity against MOG35-55-induced experimental autoimmune encephalomyelitis C57BL/6 mouse model assessed as fold change in HIF1A gene expression in brain at 0.3 mg/kg/day, ig for 14 days starting from 12th day of immunization by RT-qPCR analysis relative to control; assay type: functional; settings: time 14 day
Mus musculus [3] = test: Anti-inflammatory activity against MOG35-55-induced experimental autoimmune encephalomyelitis C57BL/6 mouse model assessed as fold change in YWHAH gene expression in brain at 0.3 mg/kg/day, ig for 14 days starting from 12th day of immunization by RT-qPCR analysis relative to control; assay type: functional; settings: time 14 day
Mus musculus [4] = test: Anti-inflammatory activity against MOG35-55-induced experimental autoimmune encephalomyelitis C57BL/6 mouse model assessed as fold change in MAG gene expression in brain at 0.3 mg/kg/day, ig for 14 days starting from 12th day of immunization by RT-qPCR analysis relative to control; assay type: functional; settings: time 14 day
Mus musculus [5] = test: Anti-inflammatory activity against MOG35-55-induced experimental autoimmune encephalomyelitis C57BL/6 mouse model assessed as methylation of CpG sites of IL11 gene promoter in brain at […], ig for 14 days starting from 12th day of immunization by PCR analysis (reference value: 61.1 +/-4%); assay type: functional; settings: time 14 day
Mus musculus [6] = test: Anti-inflammatory activity against MOG35-55-induced experimental autoimmune encephalomyelitis C57BL/6 mouse model assessed as methylation of CpG sites of SOCS5 gene promoter in brain at […], ig for 14 days starting from 12th day of immunization by PCR analysis (reference value: 10.6 +/-4%); assay type: functional; settings: time 14 day
Mus musculus [7] = test: Anti-inflammatory activity against MOG35-55-induced experimental autoimmune encephalomyelitis C57BL/6 mouse model assessed as fold change in PLP gene expression in brain at 0.15 mg/kg/day, ig for 14 days starting from 12th day of immunization by RT-qPCR analysis relative to control; assay type: functional; settings: time 14 day
Mus musculus [8] = test: Anti-inflammatory activity against MOG35-55-induced experimental autoimmune encephalomyelitis C57BL/6 mouse model assessed as fold change in C1S gene expression in brain at 0.3 mg/kg/day, ig for 14 days starting from 12th day of immunization by RT-qPCR analysis relative to control; assay type: functional; settings: time 14 day
Mus musculus [9] = test: Anti-inflammatory activity against MOG35-55-induced experimental autoimmune encephalomyelitis C57BL/6 mouse model assessed as fold change in CD4 gene expression in brain at 0.15 mg/kg/day, ig for 14 days starting from 12th day of immunization by RT-qPCR analysis relative to control; assay type: functional; settings: time 14 day
Mus musculus [10] = test: Anti-inflammatory activity against MOG35-55-induced experimental autoimmune encephalomyelitis C57BL/6 mouse model assessed as fold change in APP gene expression in brain at 0.3 mg/kg/day, ig for 14 days starting from 12th day of immunization by RT-qPCR analysis relative to control; assay type: functional; settings: time 14 day
Mus musculus [11] = test: Anti-inflammatory activity against MOG35-55-induced experimental autoimmune encephalomyelitis C57BL/6 mouse model assessed as fold change in MMP9 gene expression in brain at 0.15 mg/kg/day, ig for 14 days starting from 12th day of immunization by RT-qPCR analysis relative to control; assay type: functional; settings: time 14 day
Mus musculus [12] = test: Anti-inflammatory activity against MOG35-55-induced experimental autoimmune encephalomyelitis C57BL/6 mouse model assessed as reduction in serum monokines level by measuring reduction in IL-6 level at 0.3 mg/kg/day, ig for 14 days starting from 12th day of immunization by ELISA; assay type: functional, organism-based; settings: time 14.0 day
Mus musculus [13] = test: Anti-inflammatory activity against MOG35-55-induced experimental autoimmune encephalomyelitis C57BL/6 mouse model assessed as fold change in CD4 gene expression in brain at 0.3 mg/kg/day, ig for 14 days starting from 12th day of immunization by RT-qPCR analysis relative to control; assay type: functional; settings: time 14 day
Mus musculus [14] = test: Anti-inflammatory activity against MOG35-55-induced experimental autoimmune encephalomyelitis C57BL/6 mouse model assessed as fold change in CXCL9 gene expression in brain at 300 mg/kg/day, ig for 14 days starting from 12th day of immunization by RT-qPCR analysis relative to control; assay type: functional; settings: time 14 day
Mus musculus [15] = test: Anti-inflammatory activity against MOG35-55-induced experimental autoimmune encephalomyelitis C57BL/6 mouse model assessed as fold change in TGFB1 gene expression in brain at 300 mg/kg/day, ig for 14 days starting from 12th day of immunization by RT-qPCR analysis relative to control; assay type: functional; settings: time 14 day
Mus musculus [16] = test: Anti-inflammatory activity against MOG35-55-induced experimental autoimmune encephalomyelitis C57BL/6 mouse model assessed as fold change in HIF1A gene expression in brain at 300 mg/kg/day, ig for 14 days starting from 12th day of immunization by RT-qPCR analysis relative to control; assay type: functional; settings: time 14 day
[17] = Stability of the compound in THF/phosphate buffer at pH 2.5 incubated for 2 hrs under stirring conditions by 1H-NMR analysis; assay type: physicochemical; settings: pH 2.5, 2 h
Mus musculus [18] = test: Anti-inflammatory activity against MOG35-55-induced experimental autoimmune encephalomyelitis C57BL/6 mouse model assessed as reduction in serum chemokines level by measuring reduction in CXCL1 level at 600 mg/kg/day, ig for 14 days starting from 12th day of immunization by ELISA; assay type: functional, organism-based; settings: time 14.0 day
Mus musculus [19] = test: Anti-inflammatory activity against MOG35-55-induced experimental autoimmune encephalomyelitis C57BL/6 mouse model assessed as fold change in CCL5 gene expression in brain at 300 mg/kg/day, ig for 14 days starting from 12th day of immunization by RT-qPCR analysis relative to control; assay type: functional; settings: time 14 day
Mus musculus [20] = test: Anti-inflammatory activity against MOG35-55-induced experimental autoimmune encephalomyelitis C57BL/6 mouse model assessed as fold change in TNF-alpha gene expression in brain at 300 mg/kg/day, ig for 14 days starting from 12th day of immunization by RT-qPCR analysis relative to control; assay type: functional; settings: time 14 day
Mus musculus [21] = test: Anti-inflammatory activity against MOG35-55-induced experimental autoimmune encephalomyelitis C57BL/6 mouse model assessed as methylation of CpG sites of IL10RA gene promoter in brain at 600 mg/kg, ig for 14 days starting from 12th day of immunization by PCR analysis (reference value: 34.9 +/-4%); assay type: functional; settings: time 14 day
Mus musculus [22] = test: Anti-inflammatory activity against MOG35-55-induced experimental autoimmune encephalomyelitis C57BL/6 mouse model assessed as reduction in TNF-alpha protein expression in brain at 300 to 600 mg/kg/day, ig for 14 days starting from 12th day of immunization by western blot analysis; assay type: functional, organism-based; settings: dose 300-600 mg/kg/day, time 14.0 day
Mus musculus [23] = test: Anti-inflammatory activity against MOG35-55-induced experimental autoimmune encephalomyelitis C57BL/6 mouse model assessed as fold change in BCL2 gene expression in brain at 600 mg/kg/day, ig for 14 days starting from 12th day of immunization by RT-qPCR analysis relative to control; assay type: functional; settings: time 14 day

SMILES: CCCCCCCCc1ccc(CCC(N)(CO)CO)cc1 [FINGOLIMOD]
fold change (FC) (Mus musculus [1]): -1.1 | fold change (FC) (Mus musculus [2]): 1.86 | fold change (FC) (Mus musculus [3]): -1.26 | fold change (FC) (Mus musculus [4]): -3.16 | Activity (Mus musculus [5]): 36.2% | Activity (Mus musculus [6]): 8.8% | fold change (FC) (Mus musculus [7]): 1.54 | fold change (FC) (Mus musculus [8]): 2.12 | fold change (FC) (Mus musculus [9]): 3.06 | fold change (FC) (Mus musculus [10]): 1.72 | fold change (FC) (Mus musculus [11]): 2.43 | Activity (Mus musculus [12]): Active | fold change (FC) (Mus musculus [13]): 2.12

Stability [17]: Stable
SMILES: CCCCCCCCCCCCCCCCCCCCCCCCC(=O)O[C@H]1CC[C@]2(C)[C@H]3CC=C4[C@@H]5CC(C)(C)CC[C@]5(CO)CC[C@@]4(C)[C@]3(C)CC[C@H]2C1(C)C
fold change (FC) (Mus musculus [14]): 1.63 | fold change (FC) (Mus musculus [15]): -1.51 | fold change (FC) (Mus musculus [16]): 1.92 | Activity (Mus musculus [18]): Active | fold change (FC) (Mus musculus [19]): 2.69 | fold change (FC) (Mus musculus [20]): 1.76 | Activity (Mus musculus [21]): 32% | Activity (Mus musculus [22]): Active | fold change (FC) (Mus musculus [23]): 1.68
